For this assay, the target named is USP7 (Homo sapiens, UniProt Q93009). Description: biochemical.
Chain of USP7 (Q93009 whole entry): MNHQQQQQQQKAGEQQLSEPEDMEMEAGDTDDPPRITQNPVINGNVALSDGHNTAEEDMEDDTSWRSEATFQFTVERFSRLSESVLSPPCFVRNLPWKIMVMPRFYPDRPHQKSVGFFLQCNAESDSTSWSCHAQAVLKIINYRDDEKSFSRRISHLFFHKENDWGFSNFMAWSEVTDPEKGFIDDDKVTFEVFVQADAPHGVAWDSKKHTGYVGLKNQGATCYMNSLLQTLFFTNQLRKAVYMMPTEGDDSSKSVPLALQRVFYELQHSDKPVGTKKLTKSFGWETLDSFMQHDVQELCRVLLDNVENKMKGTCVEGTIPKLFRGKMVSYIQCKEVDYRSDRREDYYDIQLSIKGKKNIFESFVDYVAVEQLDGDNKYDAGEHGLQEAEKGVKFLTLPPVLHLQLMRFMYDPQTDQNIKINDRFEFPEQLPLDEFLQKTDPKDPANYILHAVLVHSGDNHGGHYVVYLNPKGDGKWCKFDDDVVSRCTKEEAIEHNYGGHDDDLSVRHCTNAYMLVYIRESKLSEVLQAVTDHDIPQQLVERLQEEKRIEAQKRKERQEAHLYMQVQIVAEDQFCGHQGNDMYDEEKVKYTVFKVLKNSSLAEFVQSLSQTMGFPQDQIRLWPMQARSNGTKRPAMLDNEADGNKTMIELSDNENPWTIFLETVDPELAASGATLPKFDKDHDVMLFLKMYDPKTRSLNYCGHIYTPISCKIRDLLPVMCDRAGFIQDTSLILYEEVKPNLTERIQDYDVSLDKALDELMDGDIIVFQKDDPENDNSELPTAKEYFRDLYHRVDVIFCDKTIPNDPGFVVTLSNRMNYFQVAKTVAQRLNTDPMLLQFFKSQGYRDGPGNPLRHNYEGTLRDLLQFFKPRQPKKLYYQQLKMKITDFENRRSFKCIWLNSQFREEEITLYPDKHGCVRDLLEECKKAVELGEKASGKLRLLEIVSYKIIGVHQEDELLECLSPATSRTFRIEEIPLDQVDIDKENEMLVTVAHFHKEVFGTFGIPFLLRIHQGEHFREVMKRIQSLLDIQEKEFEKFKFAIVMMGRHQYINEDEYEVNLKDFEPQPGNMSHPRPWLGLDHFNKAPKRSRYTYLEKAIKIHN
For `Cc1cnn(Cc2cc3nccc(-c4cc(C#N)cc5c4N([C@@H]4CN(C)C(C)(C)C4)CCC5)c3s2)c(=O)c1` [Example 122, (S)-8-(2-((4-methyl-6-oxopyridazin-1(6H)-yl)methyl)thieno[3,2-b]pyridin-7-yl)-1-(1,5,5-trimethylpyrrolidin-3-yl)-1,2,3,4-tetrahydroquinoline-6-carbonitrile], the IC50 (in general, the concentration that gives 50% inhibition) was < 0.01 µM.

Regarding `CN1C(=O)N(Cc2cc3nccc(-c4cc(Cl)cc5c4N(C4CNC4)CCC5)c3s2)C(=O)C12CCC2` [Example 31, 7-((7-(1-(azetidin-3-yl)-6-chloro-1,2,3,4-tetrahydroquinolin-8-yl)thieno[3,2-b]pyridin-2-yl)methyl)-5-methyl-5,7-diazaspiro[3.4]octane-6,8-dione], the IC50 fell in the range of 0.101 to 1 µM.

Take `O=c1ccn(CCC(F)F)c(=O)n1Cc1cc2nccc(-c3cc(Cl)cc4c3N([C@H]3CCNC3)CCC4)c2s1` [Example 67, (S)-3-((7-(6-chloro-1-(pyrrolidin-3-yl)-1,2,3,4-tetrahydroquinolin-8-yl)thieno[3,2-b]pyridin-2-yl)methyl)-1-(3,3-difluoropropyl)pyrimidine-2,4(1H,3H)-dione]: the IC50 was < 0.01 µM.

`CCN1CC(N2CCCc3cc(Cl)cc(-c4ccnc5cc(CN6C(=O)CCC6=O)sc45)c32)C1` [Example 4, 1-((7-(6-chloro-1-(1-ethylazetidin-3-yl)-1,2,3,4-tetrahydroquinolin-8-yl)thieno[3,2-b]pyridin-2-yl)methyl)pyrrolidine-2,5-dione] displayed an IC50 of 0.01 to 0.1 µM.

Consider `O=C1CCC(=O)N1Cc1cc2nccc(-c3cc(Cl)cc4c3C3(CCC4)CNCCO3)c2s1` (single isomer, unassigned) [Example 229b], for which the IC50 is > 1 µM.

`O=C1CCC(=O)N1Cc1cc2nccc(-c3cc(Cl)cc4c3N(C3CNC5(CCC5)C3)C(=O)CO4)c2s1` (single isomer, unassigned) [Example 173b] gave an IC50 of 0.101 to 1 µM.

In the case of `O=C1C2CC2C(=O)N1Cc1cc2nccc(-c3cc(Cl)cc4c3N([C@@H]3CNC(CO)(CO)C3)CCO4)c2s1` (single isomer, unassigned) [Example 212b], the IC50 was in the range of 0.01 to 0.1 µM.

Consider `CN1CC(=O)N(Cc2cc3nccc(-c4cc(Cl)cc5c4N([C@@H]4CNC6(CCC6)C4)CCC5)c3s2)C1=O` [Example 150, (S)-3-((7-(6-chloro-1-(5-azaspiro[3.4]octan-7-yl)-1,2,3,4-tetrahydroquinolin-8-yl)thieno[3,2-b]pyridin-2-yl)methyl)-1-methylimidazolidine-2,4-dione], for which the IC50 was < 0.01 µM.

Regarding `O=c1ccn(C2CC2)c(=O)n1Cc1cc2nccc(-c3cc(Cl)cc4c3N([C@H]3CCNC3)CCC4)c2s1` [Example 72, (S)-3-((7-(6-chloro-1-(pyrrolidin-3-yl)-1,2,3,4-tetrahydroquinolin-8-yl)thieno[3,2-b]pyridin-2-yl)methyl)-1-cyclopropylpyrimidine-2,4(1H,3H)-dione], the IC50 is < 0.01 µM.

`CC(C)(C)c1cnn(Cc2cc3nccc(-c4cc(C#N)cc5c4N([C@@H]4CN[C@@H](CO)C4)C[C@@H]4C[C@H]54)c3s2)c(=O)c1` (single isomer, unassigned) [Example 192b]: the 50% inhibitory concentration (IC50) is < 0.01 µM.

In the case of `O=C1[C@@H]2[C@H]3CC[C@H](C3)[C@@H]2C(=O)N1Cc1cc2nccc(-c3cc(Cl)cc4c3N([C@@H]3CNC5(CCC5)C3)CCC4)c2s1` [Example 155, (3aR,4S,7R,7aS)-2-((7-(6-chloro-1-((S)-5-azaspiro[3.4]octan-7-yl)-1,2,3,4-tetrahydroquinolin-8-yl)thieno[3,2-b]pyridin-2-yl)methyl)hexahydro-1H-4,7-methanoisoindole-1,3(2H)-dione], the 50% inhibitory concentration (IC50) fell in the range of 0.01 to 0.1 µM.

In the case of `O=c1ccn(CC(F)(F)F)c(=O)n1Cc1cc2ncnc(-c3cc(Cl)cc4c3N([C@H]3CCNC3)CCC4)c2s1` [Example 91, (S)-3-((4-(6-chloro-1-(pyrrolidin-3-yl)-1,2,3,4-tetrahydroquinolin-8-yl)thieno[3,2-d]pyrimidin-6-yl)methyl)-1-(2,2,2-trifluoroethyl)pyrimidine-2,4(1H,3H)-dione], the IC50 is < 0.01 µM.

Turning to `O=C1CCC(=O)N1Cc1cc2nccc(-c3cc(Cl)cc4c3N(C3CCNCC3)CCC4)c2s1` [Example 45, 1-((7-(6-chloro-1-(piperidin-4-yl)-1,2,3,4-tetrahydroquinolin-8-yl)thieno[3,2-b]pyridin-2-yl)methyl)pyrrolidine-2,5-dione], the IC50 was in the range of 0.01 to 0.1 µM.

Turning to `CN1CC2(CC(N3CCCc4cc(Cl)cc(-c5ccnc6cc(CN7C(=O)CCC7=O)sc56)c43)C2)C1` [Example 138, 1-[[7-[6-chloro-1-(2-methyl-2-azaspiro[3.3]heptan-6-yl)-3,4-dihydro-2H-quinolin-8-yl]thieno[3,2-b]pyridin-2-yl]methyl]pyrrolidine-2,5-dione], the IC50 lay within 0.01 to 0.1 µM.

For the compound `C[C@@H](c1cc2nccc(-c3cc(C#N)cc4c3N([C@@H]3CCNC3)CCC4)c2s1)N1C(=O)CCC1=O` (single isomer, unassigned) [Example 112d], the IC50 is > 1 µM.

Consider `O=c1cc(NC2CCC2)cnn1Cc1cc2nccc(-c3cc(Cl)cc4c3N(C3CNC3)CCC4)c2s1` [Example 35, 2-[[7-[1-(azetidin-3-yl)-6-chloro-3,4-dihydro-2H-quinolin-8-yl]thieno[3,2-b]pyridin-2-yl]methyl]-5-(cyclobutylamino)pyridazin-3-one], for which the IC50 was in the range of 0.01 to 0.1 µM.

The values are drawn from patent US20240158412A1 (Faxian Therapeutics, LLC, priority 2021, published 2024).
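Also: fluorescence intensity readout of USP7 enzymatic activity, reaction incubated 90 min at room temperature.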
